From the METLIN SMRT retention time set (Domingo-Almenara et al. 2019)

Assay: gradient 5% acetonitrile 3 min, to 50% in 2 min, to 85% in 15 min, held 3 min, 100 µL/min
Conditions: column: Zorbax Extend-C18 2.1 x 50 mm; eluents: water / acetonitrile, 0.1% formic acid
Method in brief: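 Retention time was recorded from adduct peaks, which were picked computationally and each inspected manually. Pure standards ran in mixtures of ~100 molecules on HPLC coupled to a quadrupole time-of-flight mass spectrometer, in positive and negative ionization mode, through a Zorbax Extend-C18 column (2.1 × 50 mm, 1.8 μm) at 100 μL/min. Eluents were water and acetonitrile, each with 0.1% formic acid.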

Row | RP-LC retention time | Structure (SMILES)
1 | 1060 s | O=C(OCc1cc(-c2cccs2)on1)c1ncc(-c2ccccc2)o1
2 | 980 s | CS(=O)(=O)N1CCC(C(=O)Nc2ccc(Br)cc2)Oc2ccccc21 (stereo unspecified)
3 | 944 s | O=C(NC1CCCCC1)c1ccc2c(c1)N(C(=O)c1ccc(F)cc1)CC2
4 | 797 s | Cc1ccc(NC(=O)CN2C(=O)CCc3cc(S(=O)(=O)N4CCCCC4C)ccc32)cc1 (stereo unspecified)
5 | 1130 s | CCCCn1c(=O)c2ccccc2n(Cc2nc(-c3ccccc3OCC)no2)c1=O
6 | 712 s | O=C(O)CCc1conc1-c1ccccc1F
7 | 731 s | COc1ccc(S(=O)(=O)N(C)C2CCc3nn(CC4CC4)c(=O)n3CC2)cc1OC (stereo unspecified)
8 | 1100 s | Cc1ccc(CN2C(=O)N(c3ccc(F)cc3)c3ncccc3S2(=O)=O)cc1
9 | 646 s | O=C(c1c[nH]c2ncccc12)N1CCCCCC1
10 | 906 s | COc1cccc(OCC2c3ccsc3CCN2C(=O)CN(CC2CCCO2)C(=O)C(C)C)c1 (stereo unspecified)
11 | 882 s | CCc1ccc2c(c1)cc(S(=O)(=O)c1ccccc1)c(=O)n2CC(=O)NC(C)C
12 | 603 s | CCOC(=O)c1c(C)[nH]c(C(=O)N2CCCC(C(=O)NCCN3CCCC3)C2)c1C (stereo unspecified)
13 | 942 s | COc1cccc(S(=O)(=O)N2CCc3c(c(-c4nnc(-c5ccc(F)cc5)o4)nn3C)C2)c1
14 | 947 s | COc1ccc(-n2c(=O)c(C(=O)NCC3CCCO3)c(O)c3cccnc32)cc1 (stereo unspecified)
15 | 872 s | CC(=O)Nc1ccc(-c2noc(C3CCCN(C(=O)Cc4ccc(Br)cc4)C3)n2)cc1 (stereo unspecified)
16 | 592 s | Cc1cc(OCC(=O)NCc2ccc3c(c2)OCO3)nc(N2CCCCC2)n1
17 | 677 s | CCC(C)OC(=O)C1=C(C)NC(=O)NC1c1ccc(O)c(OC)c1 (stereo unspecified)
18 | 729 s | CCOC(=O)N1CCN(C(=O)c2ccc(S(=O)(=O)NCc3cccs3)o2)CC1
19 | 733 s | Cc1ccc(S(=O)(=O)N2CCC(c3nc(C(=O)N4CCCC4)c(C)o3)CC2)cc1
20 | 774 s | O=C(Cc1csc2nc(-c3ccccc3)cn12)Nc1ccc(F)cc1
21 | 676 s | Cc1ccc(CNC(=O)N2CCCC(Cn3cnc4cccnc43)C2)cc1 (stereo unspecified)

Row | RP-LC retention time | Structure (SMILES)
22 | 1000 s | CC(C)CN(CC(C)C)C(=O)C1CCCN(c2ncnc3c2nc2n3CCCCC2)C1 (stereo unspecified)
23 | 884 s | O=C1CCC(c2ccccc2)=NN1c1nc2ccccc2s1
24 | 1070 s | CC(C)Oc1ccc(-c2noc(CN3N=NC4C(=O)N(c5ccc(F)cc5)C(=O)C43)n2)cc1 (stereo unspecified)
25 | 958 s | O=S(=O)(c1cc(F)cc(F)c1)N1CCN(Cc2cccc(F)c2)C2(CCOCC2)C1
26 | 651 s | CCc1nc2cc3c(cc2n1CC(=O)NC(C)c1ccccc1)OCCO3 (stereo unspecified)
27 | 740 s | O=S(=O)(Nc1ccc(F)cc1Cl)c1c[nH]c2ncccc12
28 | 655 s | CC1CCCC(NC(=O)Cn2nc(Cc3ccncc3)c3ccccc3c2=O)C1C (stereo unspecified)
29 | 600 s | Cc1cnc(CCC2CCCN2C(=O)CC(F)(F)F)n1C(C)C (stereo unspecified)
30 | 886 s | O=C(NCc1csc(-c2ccccc2)n1)C1CCN(S(=O)(=O)c2cccc3nsnc23)CC1
31 | 857 s | Cc1cc(C2CCCN2C(=O)Nc2ccc(C)c(C)c2)no1 (stereo unspecified)
32 | 613 s | Cc1cccc(C(=O)Nc2c(C(=O)N3CCN(c4ccccn4)CC3)[nH]c3ccccc23)c1
33 | 616 s | CC(C)Oc1ccccc1CN1C[C@@H]2C(=O)N(C)C(=O)[C@@H]2C1
34 | 629 s | Cc1ccoc1C(=O)Nc1ccc(C(N)=O)cc1
35 | 923 s | CCCn1cc(S(=O)(=O)Nc2ccc(F)c(C)c2)c2cccnc21
36 | 538 s | Cn1c(=O)n(C)c2cc(CNCCc3ccc(S(N)(=O)=O)cc3)ccc21
37 | 621 s | O=C(Cn1nc2nc(Nc3ccc(F)cc3)ccn2c1=O)N1CCCC1
38 | 747 s | CC(O)(c1ccccc1)C(c1ccccc1)C1CCCCN1 (stereo unspecified)
39 | 719 s | N#CCNC(=O)c1ccc(-c2ccnc(Nc3ccc(N4CCOCC4)cc3)n2)cc1
40 | 1170 s | O=S(=O)(c1cccc(C(F)(F)F)c1)N1CCc2nc(-c3ccc(F)cc3)ncc2C1
41 | 707 s | CCn1cc(CCNC(=O)Nc2cc(OC)cc(OC)c2)c2cccnc21
42 | 613 s | COc1ccc(NC(=O)Cn2ccnc2-c2ccnc(N3CCOCC3)c2)c(OC)c1

Row | RP-LC retention time | Structure (SMILES)
43 | 719 s | CCN1CCn2cc(S(=O)(=O)Nc3cc(OC)ccc3OC)cc2C1=O
44 | 1150 s | COc1ccc(C)cc1NC(=O)Cn1nc2cc(C)nc(Nc3ccc(C)cc3)n2c1=O
45 | 761 s | CC(=O)N1CCC(C2CCN(S(=O)(=O)c3ccc(Cl)s3)C2)CC1 (stereo unspecified)
46 | 922 s | O=c1n(CCOc2ccccc2)nc2ccc(S(=O)(=O)N3CCCCC3)cn12
47 | 710 s | O=C(Nc1nc2ccccc2[nH]1)c1ccc(Br)cc1
48 | 817 s | CCN(CC)CCNC(C(=O)OCCC(C)C)c1ccccc1 (stereo unspecified)
49 | 639 s | COc1cccc(CCC(=O)NCC(=O)Nc2nc3ccccc3[nH]2)c1
50 | 818 s | O=C1CCCCC(Cc2ccccc2)(C(=O)Nc2ccc(F)cc2)N1 (stereo unspecified)
51 | 733 s | Cc1cccc(NC(=O)N2CCN(c3nc(C)cc(Nc4ccccc4)n3)CC2)c1
52 | 740 s | Cc1oc(-c2[nH]ncc2C(=O)N(C)C)cc1S(=O)(=O)Nc1ccc(F)c(Cl)c1
53 | 692 s | COc1ccc(S(=O)(=O)N2CCC(CN3CCC(C)CC3)CC2)cc1Cl
54 | 810 s | Cc1cc(C(=O)Nc2ccc(F)c(F)c2)nc2cc(-c3ccco3)nn12
55 | 579 s | Nc1nc(Nc2ccccc2)nc2c1ncn2[C@@H]1O[C@H](CO)[C@H](O)C1O (stereo partly specified)
56 | 575 s | O=C(NCCN1CCOCC1)C1CCCN(c2ncnc3c2nc2n3CCCCC2)C1 (stereo unspecified)
57 | 695 s | Cc1noc(-c2ccc(OC3CN(C(=O)C4CCOC4)C3)cc2)n1 (stereo unspecified)
58 | 863 s | COc1ccc(N2CC(c3nc(-c4ccccc4F)no3)CC2=O)c(OC)c1 (stereo unspecified)
59 | 673 s | O=C1CCCN1c1ccc(Cn2nc3c(S(=O)(=O)N4CCCC4)cccn3c2=O)cc1
60 | 1120 s | CCCc1c(C(=O)OCC)cnc2nc(-c3ccccc3)nn12
61 | 692 s | COc1cc(C2c3c(-c4ccc(C)cc4)n[nH]c3C(=O)N2C)ccc1O (stereo unspecified)
62 | 1050 s | O=c1n(Cc2ccc(F)cc2Cl)nc2ccc(S(=O)(=O)N3CCCCCC3)cn12
63 | 929 s | CCOC(=O)c1[nH]c(C)c(CN(Cc2ccc3c(c2)OCO3)C(=O)C2CC2)c1C

Row | Structure (SMILES) | RP-LC retention time
64 | CCOC(=O)CN1C(=O)CC(C[C@@H](O)C2C[C@@H](C)C[C@H](C)C2=O)CC1=O (stereo partly specified) | 821 s
65 | O=C(CCc1nc(-c2ccc(N3CCCCC3)cc2)no1)N1CCC2(CC1)OCCO2 | 798 s
66 | CC(C)CN1Cc2ccccc2-n2ccnc2C12CCN(C(=O)c1ccccn1)CC2 | 631 s
